From patent US10745395B2, “Compounds for their use as drugs for the treatment and/or the prevention of infection(s) caused by biofilm-forming bacteria” (CENTRE NATIONAL DE LA RECHERCHE SCIENTIFIQUE, priority 2014, dated 2020)

Experiments:
Format in all cases: cell-based, Pseudomonas aeruginosa
[1] = system: P. aeruginosa strain PAR 20 biofilm; test: Early biofilm model, Congo red staining; settings: for absorbance (Congo red, biofilm formation): early biofilm, 0.9 mM, 492 nm
Experimental: (§1) P. aeruginosa biofilm was set-up in sterile plastic 96-well plates with adherent surface (Greiner Bio-One, USA).
(§2) Twenty microliter quantities of the bacterial stock suspensions, prepared as described above, were added to each well followed with 180 μl of sterile TSB. Final concentration of the bacteria was 1×10^8 CFU/ml.
(§3) The plates were centrifuged for 10 minutes at 2000 rpm to sediment bacteria on the bottom of each well and then incubated for 72 hours (37° C., aerobic conditions).
(§4) Biofilm quantity was determined using Congo red dye according to a modified procedure described by Allison et al. (Allison G C, Sutherland I W. A staining technique for bacteria and its correlation to extracellular carbohydrate production. J Microbiol Meth 2, 93-99 (1984)).
(§5) Briefly, at different time points (0, 6, 18, 24, 48 and 72 hours), the culture medium was gently removed from wells by using the pipette and immediately 200 μl of 0.1% Congo red solution was added. The plates were left for 30 minutes at room temperature and then 10 minutes before the end of staining, the plate was centrifuged for 10 minutes at 2000 rpm and then washed twice with buffered saline to remove unbound dye. Absorbance was measured at λ=492 nm wavelength using spectrophotometer (Awarness Technology Inc., Palm City, Fla., USA). All measurements were performed in triplicates and mean values±SD are given.
(§6) Early biofilm model: formation of early biofilm under influence of the tested substances was observed by filling wells of a 96-well plate with 20 μl of P. aeruginosa suspension and 180 μl of TSB, as described above. Tested iminosugars (compounds 1, 2, 3 and 4) were added immediately after setting-up the bacteria at a final concentration of 0.9 mM. Then, the plate was gently mixed and incubated for 48 hours at 37° C.
(§7) Biofilm formation and the number of viable bacteria were checked in parallel in the following time intervals: 0, 0.5, 8, 24, 48 hours, in accordance with the procedure described above. Biofilm thickness was estimated by staining it with Cango Red and measuring optical density while number of viable bacteria was performed using the standard viable count method. (Allison G C, Sutherland I W. A staining technique for bacteria and its correlation to extracellular carbohydrate production. J Microbiol Meth 2, 93-99 (1984)).
(§8) P. aeruginosa suspension cultures in TSB broth alone were used as a control.

[2] = system: P. aeruginosa strain PAR 50 biofilm; test: Early biofilm model, Congo red staining; settings: for absorbance (Congo red, biofilm formation): early biofilm, 0.9 mM, 492 nm
Experimental: as §1, §2, §3, §4, §5, §6, §7, §8

[3] = system: P. aeruginosa strain PAR 5 biofilm; test: Early biofilm model, Congo red staining; settings: for absorbance (Congo red, biofilm formation): 0.9 mM, 492 nm
Experimental: as §1, §2, §3, §4, §5, §6, §7, §8

[4] = system: P. aeruginosa strain PAR 20 biofilm; test: Reduction of biofilm growth (percent vs culture control)
Description: FIG. 4B represents the effect of the tested compounds (1, 2, 3 and 4) on exopolysaccharide biosynthesis in the early stages and mature P. aeruginosa biofilm formation, strain PAR 20. The abscissa represents the time (in hours) in order to differentiate early biofilm and mature biofilm, and the ordinate represents the percentage of the biofilm reduction.
as §6
(§9) Mature biofilm model: the tested substances were added 48 hours after adherence of bacteria to the wells in a 96-well plate. The growth conditions of P. aeruginosa were exactly the same, as described above for the early biofilm model.
(§10) The effect of the tested compounds (1, 2, 3 and 4) on the reduction of biofilm growth has also been studied on the three P. aeruginosa strains PAR 5, PAR 20, PAR 50.
(§11) (Percent decrease in biofilm thickness was obtained as a mean value from 3 consecutive measurements of the Congo Red stained biofilm using spectrophotometer after addition of the tested iminosugars in comparison to control regarded as 100%).

[5] = system: P. aeruginosa strain PAR 50 biofilm; test: as above
Description: FIG. 4C represents the effect of the tested compounds (1, 2, 3 and 4) on exopolysaccharide biosynthesis in the early stages and mature P. aeruginosa biofilm formation, strain PAR 50. The abscissa represents the time (in hours) in order to differentiate early biofilm and mature biofilm, and the ordinate represents the percentage of the biofilm reduction.
as §6, §9, §10, §11

[6] = system: P. aeruginosa strain PAR 5 biofilm; test: as above
Description: FIG. 4A represents the effect of the tested compounds (1, 2, 3 and 4) on exopolysaccharide biosynthesis in the early stages and mature P. aeruginosa biofilm formation, strain PAR 5. The abscissa represents the time (in hours) in order to differentiate early biofilm and mature biofilm, and the ordinate represents the percentage of the biofilm reduction.
as §6, §9, §10, §11

[7] = system: P. aeruginosa strain PAR 50; test: Number of viable bacteria in early and mature biofilm (viable count)
Experimental: as §7
(§12) After the addition of iminosugars (compounds 1, 2, 3 and 4), the biofilm formation and the number of viable bacteria were checked in the following time intervals: 48, 48.5, 56, 72, 96 hours.
(§13) Numbers of viable bacteria contained in the early and mature biofilm were estimated on separate plates with wells filled with tested P. aeruginosa strains as described above (PAR 5, PAR 20, PAR 50).
(§14) At the same time intervals, biofilm content in each well was removed and mixed by multiple pippeting and transferred to sterile tubes. Then decimal dilutions of the bacterial suspension were made in TSB broth, plated on McConkey Agar (Oxoid), and incubated at 37° C. for 24 hours.
(§15) Numbers of colonies grown on platter were counted and total numbers of the viable bacteria calculated as colony forming units (CFU) per ml.
(§16) The results depict logs of CFU/ml for three P. aeruginosa strains: PAR 5, PAR 20 and PAR 50 measured at different time intervals (0 hours, 8 hours, 24 hours, 48 hours, 56 hours, 72 hours and 96 hours). The detection limit is 100 CFU/ml.

[8] = system: P. aeruginosa strain PAR 5; test: as above
Experimental: as §7, §12, §13, §14, §15, §16

[9] = system: P. aeruginosa strain PAR 20; test: as above
Experimental: as §7, §12, §13, §14, §15, §16

[10] = system: P. aeruginosa strain PAR 20 biofilm; test: Mature biofilm model, Congo red staining; settings: for absorbance (Congo red, biofilm development): mature biofilm, compound added 48 h after induction of biofilm
Experimental: as §4, §5, §9, §12

[11] = system: P. aeruginosa strain PAR 50 biofilm; test: Mature biofilm model, Congo red staining; settings: for absorbance (Congo red, biofilm development): mature biofilm, compound added 48 h after induction of biofilm
Experimental: as §4, §5, §9, §12

[12] = system: P. aeruginosa strain PAR 5 biofilm; test: Mature biofilm model, Congo red staining; settings: for absorbance (Congo red, biofilm development): mature biofilm, compound added 48 h after induction of biofilm
Experimental: as §4, §5, §9, §12

[13] = in comparison with culture control

CCCCCC[C@H]1NC[C@@H](O)[C@H](O)[C@H]1O [Compound 1, α-1-C-hexyl-1,5-dideoxy-1,5-imino-D-xylitol] was tested, and the “absorbance (Congo red, biofilm formation)” value ([1]; 8 hours) was “about 1.0 a.u”, the “absorbance (Congo red, biofilm formation)” value ([1]; 24 hours) was “about 1.0 a.u” and the “absorbance (Congo red, biofilm formation)” value ([1]; 48 hours) was “about 0.75 a.u”. The “effect on formation of an early biofilm” value [1, 13] was “inhibit the formation of an early biofilm”, the “absorbance (Congo red, biofilm formation)” value ([2]; 8 hours) was “about 0.5 a.u” and the “absorbance (Congo red, biofilm formation)” value ([2]; 24 hours) was “about 0.8 a.u”. For the same compound, the “absorbance (Congo red, biofilm formation)” value ([2]; 48 hours) was “about 0.9 a.u”, the “effect on formation of an early biofilm” value [2, 13] was “inhibit the formation of an early biofilm” and the “biofilm formation at 8 hours, 24 hours and 48 hours” value ([3]; early biofilm) was “no biofilm formation”. The “absorbance (Congo red, biofilm formation)” value ([3]; early biofilm, 8 hours) was “about 0.25 a.u”, the “absorbance (Congo red, biofilm formation)” value ([3]; early biofilm, 24 hours) was “about 0.25 a.u” and the “absorbance (Congo red, biofilm formation)” value ([3]; early biofilm, 48 hours) was “about 0.25 a.u”. The “effect on formation of an early biofilm” value [3, 13] was “inhibit the formation of an early biofilm”, the “reduction of biofilm growth” value ([4]; 8 hours of incubation) was “about 30%” and the “reduction of biofilm growth” value ([4]; 24 hours of incubation) was “about 40%”. For the same compound, the “reduction of biofilm growth” value ([4]; 48 hours of incubation) was “about 40%”, the “reduction of biofilm growth” value ([4]; 72 hours of incubation) was “about 0%” and the “effect on biofilm growth” value ([4]; notably an early biofilm) was “can reduce the biofilm growth”. The “reduction of biofilm growth” value ([5]; 8 hours of incubation) was “about 30%”, the “reduction of biofilm growth” value ([5]; 24 hours of incubation) was “about 30%” and the “reduction of biofilm growth” value ([5]; 48 hours of incubation) was “about 0%”. The “reduction of biofilm growth” value ([5]; 72 hours of incubation) was “about 0%”, the “effect on biofilm growth” value ([5]; notably an early biofilm) was “can reduce the biofilm growth” and the “reduction of biofilm growth” value ([6]; 8 hours of incubation) was “about 90%”. The “reduction of biofilm growth” value ([6]; 24 hours of incubation) was “about 90%”, the “reduction of biofilm growth” value ([6]; 48 hours of incubation) was “about 25%” and the “reduction of biofilm growth” value ([6]; 72 hours of incubation) was “about 10%”. The “effect on biofilm growth” value ([6]; notably an early biofilm) was “can reduce the biofilm growth”, the “number of viable P. aeruginosa” value ([7]; early biofilm, 0 h) was 8 × 10^7 CFU/ml and the “number of viable P. aeruginosa” value ([7]; early biofilm, 8 h) was 2 × 10^8 CFU/ml. For the same compound, the “number of viable P. aeruginosa” value ([7]; early biofilm, 24 h) was 4 × 10^8 CFU/ml, the “number of viable P. aeruginosa” value ([7]; early biofilm, 48 h) was 3 × 10^8 CFU/ml and the “number of viable P. aeruginosa” value ([7]; mature biofilm, 56 h) was 2 × 10^9 CFU/ml. The “number of viable P. aeruginosa” value ([7]; mature biofilm, 72 h) was 1 × 10^9 CFU/ml, the “number of viable P. aeruginosa” value ([7]; mature biofilm, 96 h) was 1 × 10^9 CFU/ml and the “number of viable P. aeruginosa” value ([8]; early biofilm, 0 h) was 2 × 10^6 CFU/ml. The “number of viable P. aeruginosa” value ([8]; early biofilm, 8 h) was 3 × 10^7 CFU/ml, the “number of viable P. aeruginosa” value ([8]; early biofilm, 24 h) was 9 × 10^7 CFU/ml and the “number of viable P. aeruginosa” value ([8]; early biofilm, 48 h) was 1 × 10^8 CFU/ml. The “number of viable P. aeruginosa” value ([8]; mature biofilm, 56 h) was 3 × 10^8 CFU/ml, the “number of viable P. aeruginosa” value ([8]; mature biofilm, 72 h) was 2 × 10^8 CFU/ml and the “number of viable P. aeruginosa” value ([8]; mature biofilm, 96 h) was 3 × 10^8 CFU/ml. For the same compound, the “number of viable P. aeruginosa” value ([9]; early biofilm, 0 h) was 4 × 10^6 CFU/ml, the “number of viable P. aeruginosa” value ([9]; early biofilm, 8 h) was 7 × 10^7 CFU/ml and the “number of viable P. aeruginosa” value ([9]; early biofilm, 24 h) was 1 × 10^8 CFU/ml. The “number of viable P. aeruginosa” value ([9]; early biofilm, 48 h) was 4 × 10^8 CFU/ml, the “number of viable P. aeruginosa” value ([9]; mature biofilm, 56 h) was 6 × 10^7 CFU/ml and the “number of viable P. aeruginosa” value ([9]; mature biofilm, 72 h) was 5 × 10^7 CFU/ml. For the same compound, the “number of viable P. aeruginosa” value ([9]; mature biofilm, 96 h) was 1 × 10^8 CFU/ml, the “influence on mature biofilm formation” value [10] was “weak influence” and the “absorbance (Congo red, biofilm development)” value ([10]; 48 hours) was “about 0.75 a.u”. For the same compound, the “absorbance (Congo red, biofilm development)” value ([10]; 56 hours) was “about 0.6 a.u”, the “absorbance (Congo red, biofilm development)” value ([10]; 72 hours) was “about 1.5 a.u” and the “absorbance (Congo red, biofilm development)” value ([10]; 96 hours) was “about 1.0 a.u”. For the same compound, the “influence on mature biofilm formation” value [11] was “weak influence”, the “absorbance (Congo red, biofilm development)” value ([11]; 48 hours) was “about 1.6 a.u” and the “absorbance (Congo red, biofilm development)” value ([11]; 56 hours) was “about 1.5 a.u”. For the same compound, the “absorbance (Congo red, biofilm development)” value ([11]; 72 hours) was “about 2.4 a.u”, the “absorbance (Congo red, biofilm development)” value ([11]; 96 hours) was “about 1.9 a.u” and the “influence on mature biofilm formation” value [12] was “weak influence”. For the same compound, the “absorbance (Congo red, biofilm development)” value ([12]; 48 hours) was “about 0.7 a.u”, the “absorbance (Congo red, biofilm development)” value ([12]; 56 hours) was “about 1.1 a.u” and the “absorbance (Congo red, biofilm development)” value ([12]; 72 hours) was “about 1.25 a.u”. The “absorbance (Congo red, biofilm development)” value ([12]; 96 hours) was “about 0.5 a.u”.
